From patent publication US11530244B2, “Cyclic polypeptides for PCSK9 inhibition” (priority 2018, dated 2022)
Starred links: 1 amine or outer side, 2 acyl side, 3 side chain; linkers in the order of their positions; H or OH if unused. Positions of bridges follow the written chain, without caps; N, C: chain ends. Non-standard residues stand in square brackets, D forms with d. Residues, ends and D or L forms follow the SMILES beside them. ξ: configuration not given here. Trp(5-F) = N[C@@H](Cc1c[nH]c2ccc(F)cc12)C(=O)O; ξPhe(4-COOH) = NC(Cc1ccc(C(=O)O)cc1)C(=O)O; mXylylene = c1cc(C[*:1])cc(C[*:2])c1; Cha = N[C@@H](CC1CCCCC1)C(=O)O; αMeP = C[C@@]1(C(=O)O)CCCN1; dOrn = NCCC[C@@H](N)C(=O)O; Mpa = O=C(O)CCS

Experiments:
Assay type in all cases: binding
PCSK9 [1] = target: T1, PCSK9 (Homo sapiens (Human), UniProt Q8NBP7); experiment: PCSK9 Alexa FRET Standard assay (displacement of AlexaFluor647 tagged cyclic peptide Reagent A); conditions: PCSK9 Alexa FRET Standard assay, 0.5 nM PCSK9, 20 nM AF cyclic peptide Reagent A; read-out: IC50
How it was run: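 TR-FRET displacement: 0.5 nM biotinylated PCSK9 with 1.25 nM Strep-Eu and 20 nM AlexaFluor-tagged cyclic peptide (final) in 50 mM HEPES pH 7.4, 0.15 M NaCl, 5 mM CaCl2, 0.01% BSA, 0.01% P20, ≥2 h at room temperature. IC50 from sigmoidal fit, converted to Ki via peptide KD; falling Eu counts flagged false positives.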

[2] = target: human PCSK9 / human LDLR EGFa domain interaction (Homo sapiens (Human), UniProt Q8NBP7); experiment: TR-FRET assay of inhibition of the PCSK9-LDLR protein-protein interaction; conditions: TR-FRET, 20 nM human PCSK9, 20 nM human LDLR EGFa domain, 2 hours room temperature; read-out: IC50
How it was run: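 Inhibition of PCSK9 binding to the LDLR EGFa domain, each protein at 20 nM, detected by TR-FRET using streptavidin and anti-His donor/acceptor labels (5 nM). Two-hour room-temperature incubation in calcium-containing HEPES buffer.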

PCSK9 [3] = target: T1, PCSK9; experiment: PCSK9 Alexa FRET Plus assay (displacement of AlexaFluor647 tagged cyclic peptide Reagent B); conditions: Alexa FRET Plus, 0.5 nM PCSK9, 960 nM AF cyclic peptide Reagent B; read-out: IC50
How it was run: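 TR-FRET displacement with final 0.5 nM biotinylated PCSK9, 1.25 nM Strep-Eu and 960 nM AlexaFluor-tagged cyclic peptide in HEPES pH 7.4, NaCl, CaCl2, BSA, P20; ≥2 h at room temperature. IC50 from sigmoidal fit, converted to Ki using peptide KD. Falling europium counts flagged false positives.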

T1 sequence (Q8NBP7 153-692): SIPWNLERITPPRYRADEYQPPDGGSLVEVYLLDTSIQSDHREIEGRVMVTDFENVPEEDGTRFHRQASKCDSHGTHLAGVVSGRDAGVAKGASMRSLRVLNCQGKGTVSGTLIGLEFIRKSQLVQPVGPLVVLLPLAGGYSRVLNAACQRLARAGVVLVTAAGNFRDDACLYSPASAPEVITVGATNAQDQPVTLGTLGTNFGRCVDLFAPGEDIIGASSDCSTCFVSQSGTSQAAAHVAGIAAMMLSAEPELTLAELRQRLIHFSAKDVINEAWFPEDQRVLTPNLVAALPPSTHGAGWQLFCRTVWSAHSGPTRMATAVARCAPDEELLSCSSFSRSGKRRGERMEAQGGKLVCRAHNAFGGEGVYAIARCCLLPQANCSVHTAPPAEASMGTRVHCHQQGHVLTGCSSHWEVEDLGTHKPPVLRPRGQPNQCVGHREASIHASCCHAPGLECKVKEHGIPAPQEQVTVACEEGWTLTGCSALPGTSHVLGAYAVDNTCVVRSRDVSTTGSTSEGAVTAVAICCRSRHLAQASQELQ
Sequence of human PCSK9 / human LDLR EGFa domain interaction (Q8NBP7 153-692): as above
Sequence of human PCSK9 / human LDLR EGFa domain interaction (Q8NBP7 31-152 partner): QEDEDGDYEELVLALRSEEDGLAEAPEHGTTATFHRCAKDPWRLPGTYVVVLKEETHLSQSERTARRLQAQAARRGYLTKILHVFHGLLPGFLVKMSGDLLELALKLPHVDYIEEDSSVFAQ

## NCCCC[C@@H]1NC(=O)CCSCc2cccc(c2)CSC[C@@H](C(N)=O)NC(=O)[C@@H]2CCCN2C(=O)[C@H](Cc2ccc(O)cc2)NC(=O)[C@H](Cc2c[nH]cn2)NC(=O)[C@H](CC(=O)O)NC(=O)[C@H](Cc2c[nH]c3ccc(F)cc23)NC(=O)[C@H](CC2CCCCC2)NC(=O)CNC1=O [Compound 223] ([Mpa]KG[Cha][Trp(5-F)]DHYPC-NH2; linker 1-10 via mXylylene)
PCSK9 [1]
  IC50: 0.11 to 100 nM
[2]
  IC50: 0.1 to 100 nM
PCSK9 [3]
  IC50: 100 to 500 nM

## CC(=O)N[C@@H]1CCCNC(=O)c2ccc(cc2)CC(C(N)=O)NC(=O)[C@]2(C)CCCN2C(=O)[C@H](Cc2ccc(O)cc2)NC(=O)[C@H](Cc2cnc[nH]2)NC(=O)[C@H](CC(=O)O)NC(=O)[C@H](Cc2c[nH]c3ccc(F)cc23)NC(=O)[C@H](Cc2c[nH]c3ccc(F)cc23)NC(=O)CNC1=O (stereo partly drawn) [Compound 327] (Ac-[dOrn]G[Trp(5-F)][Trp(5-F)]DHY[αMeP][ξPhe(4-COOH)]-NH2; lactam 1-9)
PCSK9 [1]
  IC50: 0.11 to 100 nM
[2]
  IC50: 0.1 to 100 nM
PCSK9 [3]
  IC50: 100 to 500 nM
